Test results reported in patent publication US20240208954A1, “OXADIAZOLE COMPOUND, PREPARATION METHOD THEREFOR, PHARMACEUTICAL COMPOSITION AND USE THEREOF” (SHANGHAI INSTITUTE OF MATERIA MEDICA, CHINESE ACADEMY OF …, priority 2020, published 2024).
Where “and” joins values, the source holds several entries; their conditions need not be identical. Identical values can stand only once. Entries after “also recorded” stand apart in the source; their conditions may differ.

Experiments:
[1] = Preliminary assessment of pharmacokinetics in mice; format: in vivo, CD-1 mice
Experimental: Dosing Regimen 9 CD-1 mice, male, weighing 20-26 g, were randomly divided into 3 groups with 3 mice in each group. The test compounds were administered intragastric, intravenously or intraperitoneally according to the following protocol. The mice were fasted for 12 h before the test and drank water freely. Food was consumed uniformly 2 h after administration. [table] The intragastric administration solution was prepared with DMSO/0.5% HPMC(5/95, v/v) to the final concentration. Intravenous and intraperitoneal administration solution was formulated with DMSO/PEG300/EtOH/NaCl(5/40/5/50, v/v/v). The sample of the administration solution was left (50 μL of the solution was mixed with 50 μL of DMSO before and after the administration, respectively) for test. The drug was given according to the above dose, the time of administration was recorded, and 20 μL of blood was taken from the femoral plexus of mice at the above set time points and placed in heparinized tubes. The blood was immediately centrifuged at 11000 rpm for 5 min. 10 μL of plasma was immediately and accurately sucked into a centrifuge tube prefilled with 100 μL of PK-IS solution (prepared with methanol: acetonitrile (1:1,v/v)), well mixed, and freezed at −20° C. for test.

[2] = test system: GAN diet-induced NASH mouse model; test: In vivo anti-obesity, insulin resistance, NASH pharmacological activity test; parameters: species or system C57BL/6 mice
Source text: In this experiment, we investigated the effects of long-term oral administration of compound A1 on obesity, insulin resistance, hepatic lipid accumulation, inflammation and fibrosis in mice with a triple phenotype of obesity, insulin resistance and NASH induced by high fat, high cholesterol and high fructose (Gubra amylin, GAN).
Animal experiment: Male C57BL/6 mice were fed with GAN diet to induce the NASH model, and 12 weeks after modeling, the mice were randomly divided into 3 groups: low-fat diet control group (LFD, n=6), model control group (Model, n=10), and A1 group (10 mg/kg, n=10), and administered by gavage at a dose of 10 mg/kg and a volume of 10 mL/kg, once a day. During the period of administration, the food intake and body weight of animals were monitored; after 10 weeks of administration, glucose tolerance test (GTT) and insulin tolerance test (ITT) were performed; after 11 weeks of administration, fasting glucose and insulin were measured; after 12 weeks of administration, core body temperature and energy metabolism were measured; after 15 weeks of administration, body composition of mice was measured, and mice were sacrificed by dislocation after blood sampling via the posterior ocular venous plexus, and liver, subcutaneous fat, epididymal fat and brown fat were weighed, part the liver was fixed in 4% paraformaldehyde, and all tissues and serum were stored at −80° C. This experiment evaluated whether the compounds have the effect of weight loss by detecting energy metabolism, body composition, and fat weight of mice; whether the compounds have the effect of improving insulin resistance by GTT, ITT, detecting random blood glucose, fasting blood glucose and fasting insulin, and calculating HOMA-IR index; whether the compounds have the effect of […] by detecting serum liver function indexes ALT, AST, triglyceride, total cholesterol (T-CHO), LDL-C, HDL-C levels in serum, triglyceride, T-CHO, and hydroxyproline (characteristic amino acids of collagen) levels in liver, and by measuring mRNA expression levels of fatty acid ab initio synthesis and transport related genes (Srebp1c, Sed1, Fasn, Acaca, Cd36),β-oxidative metabolic pathways (Ppara, Cyp4A1,Cpt1b,Acot1,Acox1), inflammation related genes (Tnfa, Il1b, Casp1, Nlrp3, Pycard, Panx1, Cel2, Cel3) and fibrosis-related genes (Asma, Tgfb, Col1A1, Col3A1 , Col4A1 , Col4a2, Col5a2) and liver pathological changes (H&E staining, Oil Red O staining and Sirius Scarlet staining) and other indicators to evaluate whether the compounds have the effect of alleviating the disorder of lipid metabolism, inflammation and fibrosis in the pathological state of NASH.

[3] = 10 mg/kg gavage once a day, 15 weeks
[4] = 10 mg/kg gavage once a day, after 10 weeks
[5] = 10 mg/kg gavage once a day, after 11 weeks
[6] = 10 mg/kg gavage once a day, vs Model group
[7] = H&E-stained liver pathology sections, 10 mg/kg
[8] = liver, 10 mg/kg gavage once a day
[9] = overall statement, long-term administration

In the case of `CC(C)Oc1ccc(-c2nc(-c3ccc(CN4CC(C(=O)O)C4)c4ccccc34)no2)cc1C#N.Cl` [Compound A1, 1-((4-(5-(3-cyano-4-isopropoxyphenyl)-1,2,4-oxadiazol-3-yl)naphthalen-1-yl)methyl) azetidine-3-carboxylic acid hydrochloric acid], the “Concentration of A1 Drug in Plasma of Mice” value (from here on “Concentration of A1 Drug”) ([1]; title: intraperitoneal 20 mg/kg, 24.0 h, individual animals 1-3) is reported as 3.80 ng/mL, the “Concentration of A1 Drug” value ([1]; title: oral 2 mg/kg, 0.05 h, individual animals 4-6, 2 mg/kg) is reported as 1521 ng/mL and 2513 ng/mL and the “Concentration of A1 Drug” value ([1]; title: oral 2 mg/kg, 0.25 h, individual animals 4-6, 2 mg/kg) is reported as 572 ng/mL and 1021 ng/mL. For the same compound, the “Concentration of A1 Drug” value ([1]; title: oral 2 mg/kg, 0.75 h, individual animals 4-6, 2 mg/kg) was 113 ng/mL and 216 ng/mL, the “Concentration of A1 Drug” value ([1]; title: oral 2 mg/kg, 2.00 h, individual animals 4-6, 2 mg/kg) was 39.5 ng/mL and 60.6 ng/mL and the “Concentration of A1 Drug” value ([1]; title: oral 2 mg/kg, 4.00 h, individual animals 4-6, 2 mg/kg) was 8.60 ng/mL and 11.5 ng/mL and 5.20 ng/mL. The “Concentration of A1 Drug” value ([1]; title: oral 2 mg/kg, 8.00 h, individual animals 4-6, 2 mg/kg) was 8.70 ng/mL and 2.10 ng/mL and 1.10 ng/mL, the “Concentration of A1 Drug” value ([1]; title: oral 2 mg/kg, 24.0 h, individual animals 4-6, 2 mg/kg) was 0.800 ng/mL and 0.500 ng/mL and the HOMA-IR index ([2]; 10 mg/kg gavage once a day) was “significantly reduced”. For the same compound, the “energy metabolism and thermogenesis” value ([2]; 10 mg/kg gavage once a day) was “increasing energy metabolism and promoting thermogenesis”, the food intake ([2]; 10 mg/kg gavage once a day) was “without affecting” and the “liver T-CHO” value [2, 3] was “significantly reduced”. The liver hydroxyproline [2, 3] was “significantly reduced”, the liver triglycerides [2, 3] was “significantly reduced” and the liver weight [2, 3] was “significantly reduced”. The liver-to-body ratio [2, 3] was “significantly reduced”, the “serum ALT” value [2, 3] was “significantly reduced” and the “serum AST” value [2, 3] was “significantly reduced”. For the same compound, the “serum HDL-C” value [2, 3] was “significantly reduced”, the “serum LDL-C” value [2, 3] was “significantly reduced” and the “serum T-CHO” value [2, 3] was “significantly reduced”. The serum triglycerides [2, 3] was “significantly reduced”, the “glucose tolerance (GTT)” value [2, 4] was “significantly improved” and the “insulin sensitivity (ITT)” value [2, 4] was “significantly improved”. For the same compound, the fasting glucose [2, 5] was “significantly reduced”, the fasting insulin [2, 5] was “significantly reduced” and the body fat content [2, 6] was “reduced”. The body weight gain [2, 6] was “significantly slowed down”, the NAS scores [2, 7] was “significantly decreased” and the “lipid accumulation in the liver” value [2, 7] was “ameliorating (but not significant) effect”. The “liver ballooning degeneration and inflammation” value [2, 7] was “significantly alleviated”, the liver lipid accumulation ([2]; Oil Red O stained sections, mainly by reducing lipid droplet size, 10 mg/kg) was “significantly reduced” and the liver collagen deposition ([2]; Sirius Scarlet stained sections, 10 mg/kg) was “significantly reduced”. For the same compound, the “mRNA expression of fatty acid oxidation-related genes (Ppara, Cyp4A1, Acot1, Acox1)” value [2, 8] was “significantly upregulated”, the “mRNA expression of fibrosis-related genes (Asma, Tgfb, Col1A1, Col3A1, Col5a2)” value [2, 8] was “downregulated” and the “mRNA expression of inflammation genes (Tnfa, Il1b, Casp1, Pycard, Ccl2, Ccl3)” value [2, 8] was “downregulated”. For the same compound, the “serological and hepatic biochemical indexes” value ([2]; overall statement, FIG. 3) was “improved”, the “hepatic lipid metabolism disorders, inflammation and fibrosis” value ([2]; overall statement, FIG. 4) was “improved” and the “effect on NASH” value [2, 9] was “significant alleviating effect”. The “insulin resistance (symptoms)” value [2, 9] was “significantly alleviate; also recorded: alleviated” and the “obesity (symptoms)” value [2, 9] was “significantly alleviate; also recorded: alleviated”.
